Converted amounts (≈) assume the structure as drawn.
Key:
[1] = system: A-427; assay: Inhibitory concentration in human lung carcinoma A427 cell line; format: functional, cell-based
[2] = system: A-427; assay: Inhibitory concentration in human lung carcinoma A427/VCR cell line; format: functional, cell-based
[3] = Solubility was determined; format: physicochemical
[4] = species: Sus scrofa; assay: Concentration that induces microtubule assembly (tubulin obtained from porcine brain) by 50% in the absence of GTP; format: functional

| IC50 [1] [nM] | IC50 [2] [nM] | solubility [3] [mg/mL] | Structure (SMILES) | ED50 [4] [nM] |
| --- | --- | --- | --- | --- |
| 100 | 1000 | 28 (≈ 21.2 mM) | CC(=O)NC1C(O)CC(OCCOCCOCCNC(=O)O[C@H]2C[C@H]3OC[C@@]3(OC(C)=O)C3[C@H](OC(=O)c4ccccc4)[C@]4(O)C[C@H](OC(=O)[C@H](O)[C@@H](NC(=O)c5ccccc5)c5ccccc5)C(C)=C([C@@H](OC(C)=O)C(=O)[C@@]32C)C4(C)C)(C(=O)O)OC1[C@H](O)[C@@H](O)CO (stereo not given in full) | 3860 |
| – | – | – | CC(=O)O[C@H]1C(=O)[C@@]2(C)[C@H]([C@H](OC(=O)c3ccccc3)[C@]3(O)C[C@H](OC(=O)[C@H](O)[C@@H](NC(=O)c4ccccc4)c4ccccc4)C(C)=C1C3(C)C)[C@]1(OC(C)=O)CO[C@@H]1C[C@@H]2O [PACLITAXEL] | 860 |
